Test results taken from article PMC6718736, “Validation of in vitro methods for human cytochrome P450 enzyme induction: Outcome of a multi-laboratory study” (Toxicology in Vitro, 2019).
Where a name gives a salt, the structure may show the parent alone. Read-outs that look alike come from different tables or passages of the source.

How the values were obtained:
CYP1A2 [1] = test: CYP1A2 enzyme induction assay in cryopreserved HepaRG cells (phenacetin probe, LC/MS); assay type: in vitro ADME, human; conditions: for Assigned classification CYP1A2: HepaRG; on Assigned classification CYP1A2: key: 1=Positive=inducer; 0=Negative=non-inducer
CYP = CYP isoforms induced; ref Abadie et al. (2009), Richert et al. (2010), Preissner et al. (2010), Hoffmann et al. (2014); cited from earlier work
CYP2B6 [2] = test: CYP2B6 enzyme induction assay in cryopreserved HepaRG cells (bupropion probe, LC/MS); assay type: in vitro ADME, human; conditions: for Prediction in vivo inducer: Cmax/F2 >0.5 criterion; for Assigned classification CYP2B6: HepaRG; on Assigned classification CYP2B6: key: 1=Positive=inducer; 0=Negative=non-inducer
CYP2B6 [3] = test: CYP2B6 enzyme induction assay in cryopreserved primary human hepatocytes (PHH); assay type: in vitro ADME; conditions: for Assigned classification CYP2B6: PHH;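 on Assigned classification CYP2B6: code 1 means positive inducer and 0 means non-inducer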
CYP3A4 [4] = test: CYP3A4 enzyme induction assay in cryopreserved HepaRG cells (midazolam probe, LC/MS); assay type: in vitro ADME, human; conditions: for Assigned classification CYP3A4: HepaRG; on Assigned classification CYP3A4: key: 1=Positive=inducer; 0=Negative=non-inducer
CYP3A4 [5] = test: CYP3A4 enzyme induction assay in cryopreserved primary human hepatocytes (PHH); conditions: for Assigned classification CYP3A4: PHH
CYP2B6 [6] = conditions: cited from earlier work
CYP1A2 [7] = conditions: CYP1A2, human; ref Table 1; cited from earlier work
CYP3A4 [8] = conditions: CYP3A4, human in vivo reference classification (Table 11); cited from earlier work
CYP1A2 [9] = test: CYP1A2 enzyme induction assay in cryopreserved primary human hepatocytes (PHH); assay type: in vitro ADME; conditions: for Assigned classification CYP1A2: PHH;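 on Assigned classification CYP1A2: code 1 means positive inducer and 0 means non-inducer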
[10] = cited from earlier work

Prediction in vivo inducer (CYP1A2 [1]; CYP1A2, HepaRG cells, Cmax/F2 >0.5 criterion): No
Induction in vitro (CYP1A2 [1]; CYP1A2, HepaRG cells, positive in one batch in each of the three laboratories): No
Assigned classification CYP1A2 (CYP1A2 [1]; Lab 1, batch 20): 0
Assigned classification CYP1A2 (CYP1A2 [1]; Lab 1, batch 35): 0
Assigned classification CYP1A2 (CYP1A2 [1]; Lab 1, batch 36): 0
Assigned classification CYP1A2 (CYP1A2 [1]; Lab 2, batch 20): 0
Assigned classification CYP1A2 (CYP1A2 [1]; Lab 2, batch 35): 0
Assigned classification CYP1A2 (CYP1A2 [1]; Lab 2, batch 36): 0
Assigned classification CYP1A2 (CYP1A2 [1]; Lab 3, batch 20): 1
Assigned classification CYP1A2 (CYP1A2 [1]; Lab 3, batch 35): 0
Assigned classification CYP1A2 (CYP1A2 [1]; Lab 3, batch 36): 0
Prediction in vivo inducer (CYP2B6 [2]; CYP2B6, HepaRG cells, listed as Sotalol): No
Prediction in vivo inducer (CYP2B6 [2]; CYP2B6, HepaRG cells, listed as sotalol): correctly predicted
Induction in vitro (CYP2B6 [2]; CYP2B6, HepaRG cells, positive in one batch in each of the three laboratories): No
Assigned classification CYP2B6 (CYP2B6 [2]; Lab 1, batch 20): 0
Assigned classification CYP2B6 (CYP2B6 [2]; Lab 1, batch 35): 0
Assigned classification CYP2B6 (CYP2B6 [2]; Lab 1, batch 36): 0
Assigned classification CYP2B6 (CYP2B6 [2]; Lab 2, batch 20): 0
Assigned classification CYP2B6 (CYP2B6 [2]; Lab 2, batch 35): 0
Assigned classification CYP2B6 (CYP2B6 [2]; Lab 2, batch 36): 0
Assigned classification CYP2B6 (CYP2B6 [2]; Lab 3, batch 20): 0
Assigned classification CYP2B6 (CYP2B6 [2]; Lab 3, batch 35): 0
Assigned classification CYP2B6 (CYP2B6 [2]; Lab 3, batch 36): 0
Induction in vitro (CYP2B6 [3]; CYP2B6, PHH): No
Prediction in vivo inducer (CYP2B6 [3]; CYP2B6, PHH): No
Prediction in vivo inducer (CYP2B6 [3]; CYP2B6, PHH, Cmax/F2 >0.5 criterion): negative
Assigned classification CYP2B6 (CYP2B6 [3]; Lab 1, batch 0 6 A): 0
Assigned classification CYP2B6 (CYP2B6 [3]; Lab 1, batch 4 0 8): 0
Assigned classification CYP2B6 (CYP2B6 [3]; Lab 1, batch 8 0 8): 0
Assigned classification CYP2B6 (CYP2B6 [3]; Lab 2, batch 0 6 A): 0
Assigned classification CYP2B6 (CYP2B6 [3]; Lab 2, batch 4 0 8): 0
Assigned classification CYP2B6 (CYP2B6 [3]; Lab 2, batch 8 0 8): 0
Assigned classification CYP2B6 (CYP2B6 [3]; Lab 3, batch 0 6 A): 1
Assigned classification CYP2B6 (CYP2B6 [3]; Lab 3, batch 4 0 8): 0
Assigned classification CYP2B6 (CYP2B6 [3]; Lab 3, batch 8 0 8): 0
Induction in vitro (CYP3A4 [4]; CYP3A4, HepaRG cells): No
Prediction in vivo inducer (CYP3A4 [4]; CYP3A4, HepaRG cells): No
Assigned classification CYP3A4 (CYP3A4 [4]; Lab 1, batch 20): 0
Assigned classification CYP3A4 (CYP3A4 [4]; Lab 1, batch 35): 0
Assigned classification CYP3A4 (CYP3A4 [4]; Lab 1, batch 36): 0
Assigned classification CYP3A4 (CYP3A4 [4]; Lab 2, batch 20): 0
Assigned classification CYP3A4 (CYP3A4 [4]; Lab 2, batch 35): 0
Assigned classification CYP3A4 (CYP3A4 [4]; Lab 2, batch 36): 0
Assigned classification CYP3A4 (CYP3A4 [4]; Lab 3, batch 20): 0
Assigned classification CYP3A4 (CYP3A4 [4]; Lab 3, batch 35): 0
Assigned classification CYP3A4 (CYP3A4 [4]; Lab 3, batch 36): 0
Induction in vitro (CYP3A4 [5]; CYP3A4, PHH): No
Prediction in vivo inducer (CYP3A4 [5]; CYP3A4, PHH): No
Assigned classification CYP3A4 (CYP3A4 [5]; Lab 1, batch 0 6 A): 0
Assigned classification CYP3A4 (CYP3A4 [5]; Lab 1, batch 4 0 8): 0
Assigned classification CYP3A4 (CYP3A4 [5]; Lab 1, batch 8 0 8): 0
Assigned classification CYP3A4 (CYP3A4 [5]; Lab 2, batch 0 6 A): 0
Assigned classification CYP3A4 (CYP3A4 [5]; Lab 2, batch 4 0 8): 0
Assigned classification CYP3A4 (CYP3A4 [5]; Lab 2, batch 8 0 8): 0
Assigned classification CYP3A4 (CYP3A4 [5]; Lab 3, batch 0 6 A): 0
Assigned classification CYP3A4 (CYP3A4 [5]; Lab 3, batch 4 0 8): 0
Assigned classification CYP3A4 (CYP3A4 [5]; Lab 3, batch 8 0 8): 0
Prediction in vivo inducer (CYP1A2 [9]; CYP1A2, PHH, Cmax/F2 >0.5 criterion): No
Induction in vitro (CYP1A2 [9]; CYP1A2, PHH, positive in one donor in each of the three laboratories): No
Assigned classification CYP1A2 (CYP1A2 [9]; Lab 1, batch 0 6 A): 0
Assigned classification CYP1A2 (CYP1A2 [9]; Lab 1, batch 4 0 8): 0
Assigned classification CYP1A2 (CYP1A2 [9]; Lab 1, batch 8 0 8): 0
Assigned classification CYP1A2 (CYP1A2 [9]; Lab 2, batch 0 6 A): 0
Assigned classification CYP1A2 (CYP1A2 [9]; Lab 2, batch 4 0 8): 0
Assigned classification CYP1A2 (CYP1A2 [9]; Lab 2, batch 8 0 8): 0
Assigned classification CYP1A2 (CYP1A2 [9]; Lab 3, batch 0 6 A): 0
Assigned classification CYP1A2 (CYP1A2 [9]; Lab 3, batch 4 0 8): 0
Assigned classification CYP1A2 (CYP1A2 [9]; Lab 3, batch 8 0 8): 0
Compound: CC(C)NCC(O)c1ccc(NS(C)(=O)=O)cc1 (stereo not drawn) [Sotalol hydrochloride]
CYP induction in vitro (human hepatocytes) (CYP): No
Induction in vivo (CYP2B6 [6]; CYP2B6, human in vivo reference classification): No
Induction in vivo (CYP2B6 [6]; CYP2B6, human, ref Table 1): No
Induction in vivo (CYP1A2 [7]): No
Induction in vivo (CYP3A4 [8]): No
Cmax ([10]; human in vivo plasma concentration, normal dose): 2000 nM
Cmax ([10]; human in vivo, normal dose (Table 10)): 2000 nM
